Source: US5464617A, “β-lactam compounds” (Hoffmann-La Roche Inc., priority 1994, dated 1995)
Where two headings read alike, the source gives them in different places.

How the values were obtained:
[1] = tested on: Citrobacter freundii 1982; assay: MIC in vitro of a 1:4 combination of ceftriaxone with a compound of formula I (Test D); type: cell-based; details: Table 2; ceftriaxone alone (control)
β-lactamase = β-lactamase (Citrobacter freundii, UniProt P05193); assay: Determination of the β-lactamase inhibiting activity (Test C): inhibition of nitrocefin cleavage by isolated β-lactamase; type: biochemical, Citrobacter freundii 1982; details: pH 7.0, 37° C.
Experimental: Various β-lactamases can be isolated from penicillin- or cephalosporin-resistant bacterial strains such as Klebsiella pneumoniae NCTC 418, Proteus vulgaris 1028, Bacillus licheniformis 749/C, Escherichia coli SNO1, Pseudomonas aeruginosa 18SH and Citrobacter freundii 1203. For this purpose, the corresponding strains are cultivated in Tryptic Soy Broth (Difco) and harvested by centrifugation in the last logarithmic growth phase (when necessary 50-100 mg/l of ampicillin are added to the medium towards the end of the log-phase in order to induce the β-lactamase). The thus-obtained bacterial mass is treated with 20 mM Tris-HCl buffer (pH 7.0); the cells are broken open with a French press while cooling. The mixture is centrifuged (20,000 r/min.) for 20-30 minutes and a clear crude extract is obtained. The purification of the proteins is effected according to the method of Cartwright, S. J. & Waley, S. G. [Biochem. J. 221, 505-512 (1980)] and, for B. lichenformis, Ellerby, L. M. et al. [Biochemistry 29, 5797-5806 (1990)].
The determination of the activity of the isolated β-lactamases can be carried out according to the method of O'Callaghan, C. H. et al. [Antimicr. Ag. Chemother. […] The cleavage of the substrate, which is accompanied by a change in colour, is effected at 37° C. and is followed quantitatively at 482 nm using a spectral photometer. […]

[2] = tested on: Citrobacter freundii 1982; assay: MIC in vitro of a 1:4 combination of ceftriaxone with a compound of formula I (Test D); type: cell-based; details: 1:4 combination of ceftriaxone with the compound
Experimental: The minimum inhibitory concentration in vitro ([…]) of a 1:4 combination of ceftriaxone with a compound of formula I against Citrobacter freundii 1982 was measured and compiled in Table 2 hereinafter.

E. coli 1346 = assay: Antibacterial activity of the products per se, serial dilution method in liquid medium (Test E); type: cell-based; details: Table 4; test E, product per se
From the text: The antibacterial activity of the products per se is illustrated on the basis of Table 3 hereinafter, the minimum inhibitory concentration […] in vitro against E. coli 1346 being determined using the serial dilution method in liquid medium: […]

Chain of β-lactamase (P05193 21-381): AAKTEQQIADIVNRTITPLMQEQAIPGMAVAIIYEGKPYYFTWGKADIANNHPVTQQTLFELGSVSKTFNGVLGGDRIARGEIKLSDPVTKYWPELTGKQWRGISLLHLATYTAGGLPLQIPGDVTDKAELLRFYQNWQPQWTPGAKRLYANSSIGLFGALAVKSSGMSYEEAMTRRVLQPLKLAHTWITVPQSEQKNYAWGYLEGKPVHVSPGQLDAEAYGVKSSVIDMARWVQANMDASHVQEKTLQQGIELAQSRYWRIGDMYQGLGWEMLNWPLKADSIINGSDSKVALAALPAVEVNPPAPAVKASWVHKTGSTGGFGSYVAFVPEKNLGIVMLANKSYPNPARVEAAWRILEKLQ

CO/N=C(\C(=O)N[C@@H]1C(=O)N2C(C(=O)O)=C(CSc3nc(=O)c(=O)[nH]n3C)CS[C@H]12)c1csc(N)n1 [Ceftriaxone, ceftriaxone]
MIC C. freundii 1982 [1]: 128 µg/mL

(1aS,3aR,6bR)-2-[(R)- and [(S)-1,1-Dioxo-tetrahydrothien-3-ylcarbamoyl]-5-methylsulphonyloxy-1-oxo-1a,2,3,3a,4,6b-hexahydro-1H-2,6a-diazacyclobut[cd]indene-6-carboxylic acid sodium salt [9(g)]
IC50 (β-lactamase; Table 1, nitrocefin substrate, 15 minutes pre-incubation of β-lactamase with inhibitor, read-out: IC 50): 0.027 µM
MIC C. freundii 1982 ([2]; Table 2): 0.25 µg/mL

(1aS,3aR,6bS)-5-(Carbamoyloxymethyl)-2-(4-hydroxyphenylcarbamoyl)-1-oxo-1,1a,2,3,3a,6b-hexahydro-4-oxa-2,6a-diazacyclobut[cd]indene-6-carboxylic acid sodium salt [31(g)]
IC50 (β-lactamase; Table 4, test C, nitrocefin, 15 minutes pre-incubation, read-out: IC 50 (C)): 51 µM
MIC C. freundii 1982 (D) ([2]; Table 4, test D): 16 µg/mL
MIC E. coli 1346 (E) (E. coli 1346): 0,5 μg/ml
